From patent US9808434B2, “Compound for treating cancer and diabetes” (CITY OF HOPE, priority 2011, dated 2017)

Key:
PBT-017 glioma cells = test: Combination index with chemotherapy drugs, PBT-017; assay type: cell-based
Description: Effects of combination of COH-SR4 and a chemotherapy drug such as TMZ, SN38, CPT-11, and 5-FU were studied by combination index (CI) theorem and plot using the method described in Chou (“Experimental Design, and Computerized Simulation of Synergism and Antagonism in Drug Combination Studies,” Pharmacological Reviews, Vol. 58, No. 3), which is incorporated herein by reference in its entirety.
COH-SR4 and a chemotherapy drug (TMZ, SN38, CPT-11, or 5-FU) were dissolved in DMSO individually, and then diluted to the appropriate concentration in the same cell culture media before applying to cells of each cell line. After 4 days, the amount of ATP present in the cell lysates were assessed using Progema's CellGlo kit. The CI of each combination of COH-SR4 and the chemotherapy drug was calculated and plotted against the concentration of COH-SR4 for each concentration of the chemotherapy drug used.

[1] = test system: ACL, adiponectin, C/EBPα, Glut4, PPARγ; test: Adipogenic marker protein expression, Western blotting; assay type: cell-based, mouse; settings: 7 days in DM + compound
Description: Post-confluent 3T3-L1 preadipocytes were differentiated for 7 days in the presence of differentiating media (DM), or DM+ test compounds (LR23 (5 μM, 25 μM, or 50 μM), LR59 (5 μM, 25 μM, or 50 μM), LR-90 (25 μM), ROS (50 μM), TSA (0.5 μM) or apicidin (1 μM)). Protein levels were analyzed by Western blotting and the relative expression of each protein was quantified using a densitometer and calculated according to the reference bands of β-actin (FIG. 8). Numbers above each blot represent fold increase over control (undifferentiated preadipocytes).
3T3-L1 preadipocytes cells were treated with differentiating media (DM) with COH-SR4 (1 μM, 3 μM, or 5 μM) or without for 7 days. […] As used in FIG. 9C, U=undifferentiated, D=differentiated with cocktail media.

H1417 = test: Colony formation assay, H1417; assay type: cell-based, human; settings: 1.5 μM
Description: Cell survival was evaluated using a standard colony-forming assay. In total, 1×10^5 cells/mL were incubated with COH-SR4 (1.5 μM or 5 μM) or elesclomol (5 μM) for 24 h, and aliquots of 50 or 100 μL were added to 60 mm size petri dishes, containing 4 mL culture medium. After 7 or 10 days, adherent colonies were fixed, stained with 0.5% methylene blue for 30 min and colonies were counted using the Innotech Alpha Imager HP (91).
The effect of COH-SR4 was first examined in a NCI panel of cancer cell lines, the results of which indicated good activity of COH-SR4 towards lung cancer (FIG. 78A). […] Values are presented as mean±SD from two separate determinations with eight replicates each (n=16) (FIG. 78B). The COH-SR4 treatment exerted a significant inhibitory effect on the survival of lung cancer cells [IC50: H1417 cells-1.2±0.2 μM, H1618 cells-1.5±0.2 μM, H358 cells-2.1±0.2 μM and H520 cells-2.4±0.3 μM]. […] Following initial screening for the anticancer activity of COH-SR4, the effect of COH-SR4 on clonogenic potential was studied. Standard colony-forming assay was performed and the colonies were counted using Innotech Alpha Imager HP. […] The effect of COH-SR4 on induction of apoptosis was further investigated. […] TUNEL assay was performed using Promega fluorescence detection kit and examined using Zeiss LSM 510 META laser-scanning fluorescence microscope with filters 520 and 620 nm. […]

[2] = test system: CDK2, CDK4, cyclin A, cyclin B1, cyclin E1, p27; test: Cell cycle regulator proteins in H358 and H520, Western-blot; assay type: cell-based, human; settings: 24 h
Description: Cell or tissue proteins were extracted with cell lysis buffer (Cell Signaling Technology) and protein concentration was determined using the DC Protein Assay kit (Bio-Rad, Hercules, Calif., USA). Equal amount of proteins (˜40 μg) were loaded onto 4-15% Criterion TGX gels (Bio-Rad, Hercules, Calif.), resolved by SDS-PAGE electrophoresis, and then transferred onto nitrocellulose membranes for immunoblotting. Membranes were blocked with 5% skimmed milk in Tris-buffered saline containing 0.05% Tween 20 before incubation overnight at 4° C. with desired primary antibodies. Immuno-reactive proteins were visualized by peroxidase-labeled secondary antibodies and ECL system (Western Lightning Chemiluminescence Reagent, Perkin-Elmer, Mass., USA). Equal loading of proteins was confirmed by stripping and re-probing the membranes with either β-actin or GAPDH antibodies. Band intensities were quantified using a densitometer (Quantity One, Bio-Rad, Hercules, Calif.).
In the context of the elevation of GSTs in lung cancer, the impact of COH-SR4 on the catalytic activity of GSTs towards 1-chloro 2,4-dinitro benzene (CDNB), a model substrate used for GST activity was analyzed. GST activity towards 1-chloro 2,4-dinitro benzene (CDNB) and its inhibition by COH-SR4 was performed in 28000×g crude supernatant prepared from H1417, H1618, H520 and H358 cells. […]

O=C(Nc1cc(Cl)cc(Cl)c1)Nc1cc(Cl)cc(Cl)c1 [COH-SR4, 1,3-bis(3,5-dichlorophenyl) urea]
combination effect (CI) with 5-FU (PBT-017 glioma cells; COH-SR4 <0.05 μM + 5-FU >250 μM): Additive effects
combination effect (CI) with CPT-11 (PBT-017 glioma cells; COH-SR4 <0.5 μM + CPT-11 <0.0625 μM): Synergism
combination effect (CI) with SN-38 (PBT-017 glioma cells; COH-SR4 <0.5 μM + SN-38 <0.0004 μM): Synergism
combination effect (CI) with TMZ (PBT-017 glioma cells; COH-SR4 <0.5 μM + TMZ 25 μM): Synergism
combination effect (CI) with TMZ (PBT-017 glioma cells; COH-SR4 <1.0 μM + TMZ >100 μM): Additive effects
combination effect (CI) with SN-38 (PBT-017 glioma cells; COH-SR4 >0.5 μM + SN-38 <0.001 μM): Additive effects
combination effect (CI) with CPT-11 (PBT-017 glioma cells; COH-SR4 >1.0 μM + CPT-11 <0.5 μM): Additive effects
expression of adipogenic markers [1]: decreased expression of key transcription factors (C/EBPα, PPARγ) and proteins (ACL, adiponectin, FAS)
colony formation (H1417): 39±8%
protein level of p27 [2]: up-regulated
protein levels of CDK2, CDK4, cyclin A, cyclin B1 and cyclin E1 [2]: decreased the protein levels of CDK2, CDK4, cyclin A, cyclin B1 and cyclin E1
